From patent US4568693A, “N-Naphthoylglycine derivatives” (Ayerst, McKenna & Harrison, Inc., priority 1981, dated 1986)

Key:
aldose reductase [1] = conditions: literature; cited from earlier work
aldose reductase [2] = molecular target: T1, aldose reductase (Bos taurus, UniProt P16116); test: in vitro aldose reductase inhibition (modified Hayman and Kinoshita procedure); format: biochemical, bovine; conditions: for inhibition at 10 µM: 10^-5 molar, read-out: % Inhibition at Different Molar Concentration (in vitro), 10^-5; for inhibition at 1 µM: 10^-6 molar, read-out: % Inhibition at Different Molar Concentration (in vitro), 10^-6; for inhibition at 0.1 µM: 10^-7 molar, read-out: % Inhibition at Different Molar Concentration (in vitro), 10^-7
T1 construct: the preparation of the enzyme from bovine lens; from tissue; host or cells: bovine lens
Excerpt: In the present case the procedure of Hayman and Kinoshita is modified in that the final chromatography step is omitted in the preparation of the enzyme from bovine lens.

[3] = tested on: accumulation of dulcitol in the lenses; test: galactosemic rats, dulcitol accumulation in the lens; format: in vivo, rat (Sprague-Dawley); conditions: 4 days, vs untreated galactosemic rats
Excerpt: The aldose reductase inhibiting property of the compounds of this invention and the utilization of the compounds in preventing, diminishing and alleviating diabetic complications are demonstrable in experiments using galactosemic rats, see Dvornik et al., cited above. Such experiments are exemplified hereinbelow after the listing of the following general comments pertaining to these experiments:
(a) Four or more groups of six male rats, 50-70 g, Sprague-Dawley strain, were used. The first group, the control group, was fed a mixture of laboratory chow (rodent laboratory chow, Purina) and glucose at 20% (w/w %) concentration. The untreated galactosemic group was fed a similar diet in which galactose is substituted for glucose. The third group was fed a diet prepared by mixing a given amount of the test compound with the galactose containing diet. The concentration of galactose in the diet of the treated groups was the same as that for the untreated galactosemic group.
(b) After four days, the animals were killed by decapitation. The eyeballs were removed and punctured with a razor blade; the freed lenses were rolled gently on filter paper and weighed. The sciatic nerves were dissected as completely as possible and weighed. Both tissues were frozen and can be kept up to two weeks before being analyzed for dulcitol.
(c) The polyol determination was performed by a modification of the procedure of M. Kraml and L. Cosyns, Clin. Biochem., 2, 373 (1969). Only two minor reagent changes were made: (a) The rinsing mixture was an aqueous 5% (w/v) trichloroacetic acid solution and (b) the stock solution was prepared by dissolving 25 mg of dulcitol in 100 ml of an aqueous trichloroacetic acid solution. [N.B.: For each experiment the average value found in the tissue from rats fed the glucose diet was subtracted from the individual values found in the corresponding rat tissue to obtain the amount of polyol accumulated].
The figures under L and N represent the percentage decrease of dulcitol accumulation in the tissues of the lens and sciatic nerve, respectively, for treated rats as compared to untreated rats.

O=C(O)CN1C(=O)c2cccc3cccc(c23)C1=O [1,3-Dioxo-1H-benz[de]isoquinoline-2(3H)-acetic acid]
inhibition of aldose reductase (result in words) (aldose reductase [1]): effective inhibitor of aldose reductase

CN(CC(=O)O)C(=S)c1cccc2c(Cl)cccc12 [Example 40, N-[(5-chloro-1-naphthalenyl)thioxomethyl]-N-methylglycine]
inhibition at 10 µM (aldose reductase [2]): 91% | inhibition at 1 µM (aldose reductase [2]): 83% | inhibition at 0.1 µM (aldose reductase [2]): 40% | percentage decrease of dulcitol accumulation, lens (L) ([3]; 156 mg/kg/day in diet): 34%

COc1ccc2c(C(=S)N(C)CC(=O)O)cccc2c1Br [Example 41, N-[(5-bromo-6-methoxy-1-naphthalenyl)thioxomethyl]-N-methylglycine]
inhibition at 10 µM (aldose reductase [2]): 99% | inhibition at 1 µM (aldose reductase [2]): 91% | inhibition at 0.1 µM (aldose reductase [2]): 72% | percentage decrease of dulcitol accumulation, lens (L) ([3]; 162 mg/kg/day in diet): 34%

COc1c(Cl)cc(C(=S)N(C)CC(=O)O)c2ccccc12 [Example 45, N-[(3-chloro-4-methoxy-1-naphthalenyl)thioxomethyl]-N-methylglycine]
inhibition at 10 µM (aldose reductase [2]): 85% | inhibition at 1 µM (aldose reductase [2]): 78% | inhibition at 0.1 µM (aldose reductase [2]): 33% | percentage decrease of dulcitol accumulation, lens (L) ([3]; 163 mg/kg/day in diet): 15%

CN(CC(=O)O)C(=S)c1cccc2c(Cl)cc(Cl)cc12 [Example 46, N-[(5,7-dichloro-1-naphthalenyl)thioxomethyl]-N-methylglycine]
inhibition at 10 µM (aldose reductase [2]): 88% | inhibition at 1 µM (aldose reductase [2]): 75% | inhibition at 0.1 µM (aldose reductase [2]): 29% | percentage decrease of dulcitol accumulation, lens (L) ([3]; 52 mg/kg/day in diet): 29%

CN(CC(=O)O)C(=S)c1cccc2c(C(F)(F)F)cccc12 [Example 53b, N-[[(5-trifluoromethyl)-1-naphthalenyl]thioxomethyl]-N-methylglycine]
inhibition at 10 µM (aldose reductase [2]): 93% | inhibition at 1 µM (aldose reductase [2]): 84% | inhibition at 0.1 µM (aldose reductase [2]): 33% | percentage decrease of dulcitol accumulation, lens (L) ([3]; 11 mg/kg/day in diet): 2%

O=C1NC(=O)[C@@]2(CCOc3ccc(F)cc32)N1 [sorbinil, (S)-6-Fluoro-2,3-dihydrospiro(4H-1-benzopyran-4,4'-imidazolidine)-2',5'-dione]
inhibition of aldose reductase (result in words) (aldose reductase [1]): aldose reductase inhibiting properties
